According to paper PMC8765437, “GSK3640254 Is a Novel HIV-1 Maturation Inhibitor with an Optimized Virology Profile” (Antimicrobial Agents and Chemotherapy, 2022):
Read-outs that look alike come from different tables or passages of the source.

Test system: NLRepRlucP373S viruses containing Gag SDMs or gag/pr genes from clinical isolates
Experiment: Multiple-cycle replication assay, NLRepRluc reporter viruses in MT-2 cells, luciferase endpoint
Format: cell-based, HIV-1
Description: Multiple-cycle assays using recombinant viruses or clinical isolates were used to assess MI antiviral activity as described previously ([10]). pNLRepRlucP373S (the P373S change is in the Gag gene and converts an outlier polymorphism in the NL4-3 gene to the prevalent amino acid in the population) plasmids containing SDMs in Gag or gag/pr regions from clinical isolates were transfected into HEK 293T cells, and the supernatant containing recombinant virus was harvested after 4 to 5 days. Virus was used to infect MT-2 cells in the presence of a 3-fold serially diluted compound at a final dimethyl sulfoxide (DMSO) concentration of 1%. The inocula of the reporter viruses were determined based on the luciferase activity detected on day 4 postinfection. The MOI (ratio of infectious virions to target cells) of reporter-free laboratory strains and clinical isolates was 0.005, as derived from a tissue culture infectious dose study. Clinical isolates or reporter-free viruses were examined in the reporter CEM-NKR-CCR5-Luc cells or PBMCs at MOIs ranging from 0.005 to 0.01. Each infection started with a drug-free preincubation of the cell-virus mixtures, performed at 37°C and 5% CO2 for either 1 h at 2 times the final cell density (reporter viruses) or 1 h (reporter-free laboratory strains) or 3 h (clinical isolates) using cell pellets in 0.5 mL of medium. After preincubation, cell-virus mixtures were added to compound-containing 96-well plates for a final cell density of either 10,000 (MT-2 cells for reporter viruses), 20,000 (MT-2 and PM1 cells for reporter-free laboratory strains), 200,000 (PBMCs for clinical isolates), or 500,000 (CEM-NKR-CCR5-Luc for reporter-free laboratory strains) cells per well. The CEM-NKR-CCR5-Luc cell assay was performed in the presence of Polybrene (10 μg/mL). Virus growth was determined on days 4 to 5 postinfection for reporter variants or days 5 to 11 for the other viruses. The reporter viruses were detected by a luciferase assay according to manufacturer protocols (Brite-Glo luciferase kit [Promega] for CEM-NKR-CCR5-Luc cells and Dual-Luciferase Reporter 1000 assay system [Promega] for the other cells), and luminescence was detected on a Wallac Trilux. The growth of clinical isolates in PBMCs was quantitated by reverse transcriptase activity in a 96-well scintillation proximity assay (SPA). Twenty microliters of culture supernatants was mixed with 40 μL of reaction cocktail (62.5 mM Tris-HCl [pH 7.8], 100 mM KCl, 0.0625% NP-40, 2.5 mM dithiothreitol [DTT], 6.25 mM MgCl2, 1 mM EGTA, 6.25 μg/mL of poly rA, 2.5 μg/mL of streptavidin SPA beads prebound with biotinylated-dT12-18, and 1 μCi of [^3H]TTP). Mixtures were incubated at 37°C for ∼3 h and quenched with 100 μl of 0.25 M EDTA per well. Luminescence was detected on a Wallac Trilux programmed for tritium counting with SPA beads in opaque plates. The growth of the reporter-free laboratory M-tropic strains and clinical isolates was monitored by a p24 enzyme-linked immunosorbent assay (ELISA; PerkinElmer Life Sciences, Waltham, MA) performed on culture supernatants. […] A 1:1,000 dilution of cell supernatant in PBS was generally observed to fall in the dynamic range of the endpoint signal.
Maximal percent inhibition values were calculated as MPI = 100 – (mean signals at the 2 highest concentrations of compound/mean signal of 2 no-drug control wells) × 100.

[1] = Human immunodeficiency virus 1, MT2, ΔV370, 10% FBS

## C=C(C)[C@@H]1CC[C@]2(NCCN3CCS(=O)(=O)CC3)CC[C@]3(C)[C@H](CC[C@@H]4[C@@]5(C)CC=C(C6=CC[C@@](CF)(C(=O)O)CC6)C(C)(C)[C@@H]5CC[C@]43C)[C@@H]12 [GSK’254]
Human immunodeficiency virus 1, MT2, read-out: PBA EC90, subtype B gag/pr 93US155 (V370T)
  EC90: 14 nM
Human immunodeficiency virus 1, MT2, read-out: PBA EC90, subtype B gag/pr 411-1-C (Wild-type)
  EC90: 7 nM
Human immunodeficiency virus 1, MT2, read-out: PBA EC90, subtype B gag/pr 220162 (Wild-type)
  EC90: 40 nM
Human immunodeficiency virus 1, MT2, read-out: PBA EC90, subtype B gag/pr 400024 (V370M)
  EC90: 10 nM
Human immunodeficiency virus 1, MT2, read-out: PBA EC90, subtype B gag/pr 400051 (V370A)
  EC90: 21 nM
Human immunodeficiency virus 1, MT2, read-out: PBA EC90, subtype B gag/pr 1000038 (V362I/V370A)
  EC90: 43 nM
Human immunodeficiency virus 1, MT2, read-out: PBA EC90, subtype B gag/pr 1000156 (V362I)
  EC90: 63 nM
Human immunodeficiency virus 1, MT2, read-out: PBA EC90, subtype B gag/pr 1900120 (V370M)
  EC90: 11 nM
Human immunodeficiency virus 1, MT2, read-out: PBA EC90, subtype B gag/pr 1900140 (V362I)
  EC90: 47 nM
Human immunodeficiency virus 1, MT2, read-out: PBA EC90, subtype C gag/pr 93MW690
  EC90: 17 nM
Human immunodeficiency virus 1, MT2, read-out: PBA EC90, subtype C gag/pr 97ZA003
  EC90: 24 nM
Human immunodeficiency virus 1, MT2, read-out: PBA EC90, subtype C gag/pr 98CN009
  EC90: 27 nM
Human immunodeficiency virus 1, MT2, read-out: PBA EC90, subtype C gag/pr 98IN026
  EC90: 16 nM
Human immunodeficiency virus 1, MT2, read-out: PBA EC90, subtype C gag/pr 11657-3
  EC90: 37 nM
Human immunodeficiency virus 1, MT2, read-out: PBA EC90, subtype C gag/pr 20635-4
  EC90: 40 nM
Human immunodeficiency virus 1, MT2, read-out: PBA EC90, subtype C gag/pr 1700141
  EC90: 19 nM
Human immunodeficiency virus 1, MT2, read-out: PBA EC90, subtype C gag/pr 1900543
  EC90: 24 nM
Human immunodeficiency virus 1, MT2, read-out: mean PBA EC90, 44-member library of genotyped chimeric and SDM viruses, protein-binding adjusted
  EC90: 33 nM
Human immunodeficiency virus 1, MT2, subtype B gag/pr 4NRR (Wild-type)
  EC50: 1 nM
Human immunodeficiency virus 1, MT2, subtype B gag/pr 28-MDR (Wild-type)
  EC50: 1 nM
Human immunodeficiency virus 1, MT2, subtype B gag/pr 92BR014 (V370M)
  EC50: 1 nM
Human immunodeficiency virus 1, MT2, subtype B gag/pr 92BR018 (V, QAΔ)
  EC50: 1 nM
Human immunodeficiency virus 1, MT2, subtype B gag/pr 92TH014 (V362I)
  EC50: 1 nM
Human immunodeficiency virus 1, MT2, subtype B gag/pr 92TH026 (V362I)
  EC50: 4 nM
Human immunodeficiency virus 1, MT2, subtype B gag/pr 92US072 (V362I)
  EC50: 1 nM
Human immunodeficiency virus 1, MT2, subtype B gag/pr 92US729 (Wild-type)
  EC50: 1 nM
Human immunodeficiency virus 1, MT2, subtype B gag/pr 93BR008 (V362I)
  EC50: 2 nM
Human immunodeficiency virus 1, MT2, subtype B gag/pr 93BR009 (V370M)
  EC50: 2 nM
Human immunodeficiency virus 1, MT2, subtype B gag/pr 93BR017 (V, QAΔ)
  EC50: 2 nM
Human immunodeficiency virus 1, MT2, subtype B gag/pr 93BR022 (V, QAΔ)
  EC50: 3 nM
Human immunodeficiency virus 1, MT2, subtype B gag/pr 93TH0647 (V362I)
  EC50: 2 nM
Human immunodeficiency virus 1, MT2, subtype B gag/pr 93US141 (V362I)
  EC50: 2 nM
Human immunodeficiency virus 1, MT2, subtype B gag/pr 93US155 (V370T)
  EC50: 1 nM
Human immunodeficiency virus 1, MT2, subtype B gag/pr 411-1-C (Wild-type)
  EC50: 0.5 nM
Human immunodeficiency virus 1, MT2, subtype B gag/pr 220162 (Wild-type)
  EC50: 2 nM
Human immunodeficiency virus 1, MT2, subtype B gag/pr 400024 (V370M)
  EC50: 1 nM
Human immunodeficiency virus 1, MT2, subtype B gag/pr 400051 (V370A)
  EC50: 1 nM
Human immunodeficiency virus 1, MT2, subtype B gag/pr 1000038 (V362I/V370A)
  EC50: 3 nM
Human immunodeficiency virus 1, MT2, subtype B gag/pr 1000156 (V362I)
  EC50: 4 nM
Human immunodeficiency virus 1, MT2, subtype B gag/pr 1900120 (V370M)
  EC50: 1 nM
Human immunodeficiency virus 1, MT2, subtype B gag/pr 1900140 (V362I)
  EC50: 1 nM
Human immunodeficiency virus 1, MT2, subtype C gag/pr 93MW690
  EC50: 1 nM
Human immunodeficiency virus 1, MT2, subtype C gag/pr 97ZA003
  EC50: 1 nM
Human immunodeficiency virus 1, MT2, subtype C gag/pr 98CN009
  EC50: 1 nM
Human immunodeficiency virus 1, MT2, subtype C gag/pr 98IN026
  EC50: 1 nM
Human immunodeficiency virus 1, MT2, subtype C gag/pr 10215-6
  EC50: 1 nM
Human immunodeficiency virus 1, MT2, subtype C gag/pr 11657-3
  EC50: 2 nM
Human immunodeficiency virus 1, MT2, subtype C gag/pr 20635-4
  EC50: 1 nM
Human immunodeficiency virus 1, MT2, subtype C gag/pr 20706-3
  EC50: 1 nM
Human immunodeficiency virus 1, MT2, subtype C gag/pr 1300495
  EC50: 1 nM
Human immunodeficiency virus 1, MT2, subtype C gag/pr 1700141
  EC50: 2 nM
Human immunodeficiency virus 1, MT2, subtype C gag/pr 1900543
  EC50: 1 nM
[1]
  EC50: 4.4 nM
  EC90: 7.8 nM
SDM A326T/V362I/V370A
  MPI: 69%
SDM A364V
  MPI: 70%
SDM R361K/V362I/L363M
  MPI: 91%
SDM T332S/V362I/prR41G
  MPI: 97%
SDM V362I/V370A
  MPI: 91%
SDM V370A
  MPI: 97%
SDM Wild type
  MPI: 98%
SDM ΔV370
  MPI: 96%
